Results reported in patent publication US10847829B2, “Quinone and hydroquinone based flow battery” (President and Fellows of Harvard College, priority 2013, dated 2020).

How the values were obtained:
Solubility = assay type: physicochemical; settings: pH 0
Cyclic voltammetry (CV) = assay type: physicochemical; settings: about 1 mM in 1M sulfuric acid in water
Procedure: [drawing 47] (concentration about 1 mM in 1M sulfuric acid in water) was studied by cyclic voltammetry (CV).
[drawing 48] (concentration about 1 mM in 1M sulfuric acid in water) was studied by CV.
[drawing 50] (concentration about 1 mM in 1M sulfuric acid in water) was studied by CV.
[drawing 53] (concentration about 1 mM in 1M sulfuric acid in water) was studied by CV.

9,10-anthraquinone-2,7-disulfonate [Scheme 1 ID 1]
solubility (Solubility): ~1000 mM

O=C1c2ccccc2C(=O)c2c(O)c(S(=O)(=O)O)cc(O)c21 [Example 2, 1,4-dihydroxy-9,10-anthraquinone-3-sulfonic acid]
redox peaks location, higher-potential set (Cyclic voltammetry (CV)): ~1.08 V | redox peaks location, lower-potential set (Cyclic voltammetry (CV)): ~0.11 V

O=C1c2ccccc2C(=O)c2c1cc(S(=O)(=O)O)c(O)c2O [Example 3, 1,2-dihydroxy-9,10-anthraquinone-3-sulfonic acid]
redox peaks location, higher-potential set (Cyclic voltammetry (CV)): ~1.3 V | redox peaks location, lower-potential set (Cyclic voltammetry (CV)): ~0.10 V

O=C1c2ccccc2C(=O)c2c(O)c(SCCS(=O)(=O)O)c(SCCS(=O)(=O)O)c(O)c21 [Example 6, 2,2′-((1,4-dihydroxy-9,10-dioxo-9,10-dihydroanthracene-2,3-diyl)bis(sulfanediyl))bis(ethane-1-sulfonic acid)]
redox peaks location, higher-potential set (Cyclic voltammetry (CV)): ~1.08 V | redox peaks location, lower-potential set (Cyclic voltammetry (CV)): ~0.11 V
